The values that follow come from article PMC5099554 (British Journal of Clinical Pharmacology, 2016).

For orientation: AUC(0-inf) means the area under the concentration-time curve extrapolated to infinity. Low values mean low exposure, high ones high exposure. By AUC(0-t) is commonly meant exposure summed from dosing to a finite time, without extrapolation to infinity. Read a high AUC(0-t) as high exposure. Usually half-life stands for the time in which the quantity being followed falls by half. Low values mean fast loss, high ones slow loss. As a reminder, the Tmax is the time from dosing to the highest level.

In one series the test system is CYP1A2. As to conditions: cited from earlier work.
The conditions of series [1]: healthy male subjects, plasma; for AUC(0-inf): AUCinf; for AUC(0-inf) / AUC(0-t): geometric mean; for AUC(0-t): AUClast; for half-life: t 1/2, geometric mean.
Setting [2] is: male, human, in vivo, After FRG, after 2 weeks of fermented red ginseng.
The mark [3] stands for this setting: male, human, in vivo, Before FRG, before fermented red ginseng.

Molecules are shown by their SMILES. Where two headings read alike, the source gives them in different places.

Take `Cn1c(=O)c2c(ncn2C)n(C)c1=O` [Caffeine, caffeine]: the “fraction metabolized to paraxanthine by CYP1A2” value in the series with CYP1A2 is given as “over 95%”. Moreover, in series [1], the “AUCinf, geometric mean ratio, After FRG: Before FRG (90% CI)” value is on record as 1.165 (1.002–1.356); the “AUClast, geometric mean ratio, After FRG: Before FRG (90% CI)” value is reported as 1.128 (0.997–1.277); the “C max, geometric mean ratio, After FRG: Before FRG (90% CI)” value is 1.002 (0.857–1.171). Moreover, in series [1] (setting [2]), the AUC(0-inf) is 57.5 µg·h/mL, the AUC(0-t) worked out at 51.3 µg·h/mL and the half-life was 6.94 h. Further, in series [1] (setting [3]), the total exposure AUC(0-inf) was determined as 49.3 µg·h/mL, the exposure AUC(0-t) amounted to 45.5 µg·h/mL and the half-life was 5.5 h. Also, the time to peak (Tmax) in series [1] (male, human, in vivo, t max (median), Before FRG, before fermented red ginseng) amounted to 0.5 h.
